Results: BindingDB's records for patent US9427428 (Janssen Ireland, 2016)

Target: T1, Genome polyprotein [810-3010] (Hepatitis C virus genotype 1b (isolate Con1), UniProt Q9WMX2)
T1 construct: 810-3010
Test: Stable Replicon Assay
Source text: The assay utilized the stably transfected cell line Huh-7 luc/neo (hereafter referred to as Huh-Luc). This cell line harbors an RNA encoding a bicistronic expression construct comprising the wild type NS3-NS5B regions of HCV type 1b translated from an Internal Ribosome Entry Site (IRES) from encephalomyocarditis virus (EMCV), preceded by a reporter portion (FfL-luciferase), and a selectable marker portion (neoR, neomycine phosphotransferase). The construct is flanked by 5' and 3' NTRs (non-translated regions) from HCV type 1b. Continued culture of the replicon cells in the presence of G418 (neoR) is dependent on the replication of the HCV RNA. The stably transfected replicon cells that replicate HCV RNA autonomously and to high levels, encoding inter alia luciferase, were used for screening the antiviral compounds. The replicon cells were plated in 384 well plates in the presence of the test and control compounds which were added in various concentrations. Following an incubation of three days, HCV replication was measured by assaying luciferase activity (using standard luciferase assay substrates and reagents and a Perkin Elmer ViewLux™ ultraHTS microplate imager). […] The inhibitory activity of the compound was monitored on the Huh-Luc cells, enabling a dose-response curve for each test compound.

T1 sequence (Q9WMX2 810-3010): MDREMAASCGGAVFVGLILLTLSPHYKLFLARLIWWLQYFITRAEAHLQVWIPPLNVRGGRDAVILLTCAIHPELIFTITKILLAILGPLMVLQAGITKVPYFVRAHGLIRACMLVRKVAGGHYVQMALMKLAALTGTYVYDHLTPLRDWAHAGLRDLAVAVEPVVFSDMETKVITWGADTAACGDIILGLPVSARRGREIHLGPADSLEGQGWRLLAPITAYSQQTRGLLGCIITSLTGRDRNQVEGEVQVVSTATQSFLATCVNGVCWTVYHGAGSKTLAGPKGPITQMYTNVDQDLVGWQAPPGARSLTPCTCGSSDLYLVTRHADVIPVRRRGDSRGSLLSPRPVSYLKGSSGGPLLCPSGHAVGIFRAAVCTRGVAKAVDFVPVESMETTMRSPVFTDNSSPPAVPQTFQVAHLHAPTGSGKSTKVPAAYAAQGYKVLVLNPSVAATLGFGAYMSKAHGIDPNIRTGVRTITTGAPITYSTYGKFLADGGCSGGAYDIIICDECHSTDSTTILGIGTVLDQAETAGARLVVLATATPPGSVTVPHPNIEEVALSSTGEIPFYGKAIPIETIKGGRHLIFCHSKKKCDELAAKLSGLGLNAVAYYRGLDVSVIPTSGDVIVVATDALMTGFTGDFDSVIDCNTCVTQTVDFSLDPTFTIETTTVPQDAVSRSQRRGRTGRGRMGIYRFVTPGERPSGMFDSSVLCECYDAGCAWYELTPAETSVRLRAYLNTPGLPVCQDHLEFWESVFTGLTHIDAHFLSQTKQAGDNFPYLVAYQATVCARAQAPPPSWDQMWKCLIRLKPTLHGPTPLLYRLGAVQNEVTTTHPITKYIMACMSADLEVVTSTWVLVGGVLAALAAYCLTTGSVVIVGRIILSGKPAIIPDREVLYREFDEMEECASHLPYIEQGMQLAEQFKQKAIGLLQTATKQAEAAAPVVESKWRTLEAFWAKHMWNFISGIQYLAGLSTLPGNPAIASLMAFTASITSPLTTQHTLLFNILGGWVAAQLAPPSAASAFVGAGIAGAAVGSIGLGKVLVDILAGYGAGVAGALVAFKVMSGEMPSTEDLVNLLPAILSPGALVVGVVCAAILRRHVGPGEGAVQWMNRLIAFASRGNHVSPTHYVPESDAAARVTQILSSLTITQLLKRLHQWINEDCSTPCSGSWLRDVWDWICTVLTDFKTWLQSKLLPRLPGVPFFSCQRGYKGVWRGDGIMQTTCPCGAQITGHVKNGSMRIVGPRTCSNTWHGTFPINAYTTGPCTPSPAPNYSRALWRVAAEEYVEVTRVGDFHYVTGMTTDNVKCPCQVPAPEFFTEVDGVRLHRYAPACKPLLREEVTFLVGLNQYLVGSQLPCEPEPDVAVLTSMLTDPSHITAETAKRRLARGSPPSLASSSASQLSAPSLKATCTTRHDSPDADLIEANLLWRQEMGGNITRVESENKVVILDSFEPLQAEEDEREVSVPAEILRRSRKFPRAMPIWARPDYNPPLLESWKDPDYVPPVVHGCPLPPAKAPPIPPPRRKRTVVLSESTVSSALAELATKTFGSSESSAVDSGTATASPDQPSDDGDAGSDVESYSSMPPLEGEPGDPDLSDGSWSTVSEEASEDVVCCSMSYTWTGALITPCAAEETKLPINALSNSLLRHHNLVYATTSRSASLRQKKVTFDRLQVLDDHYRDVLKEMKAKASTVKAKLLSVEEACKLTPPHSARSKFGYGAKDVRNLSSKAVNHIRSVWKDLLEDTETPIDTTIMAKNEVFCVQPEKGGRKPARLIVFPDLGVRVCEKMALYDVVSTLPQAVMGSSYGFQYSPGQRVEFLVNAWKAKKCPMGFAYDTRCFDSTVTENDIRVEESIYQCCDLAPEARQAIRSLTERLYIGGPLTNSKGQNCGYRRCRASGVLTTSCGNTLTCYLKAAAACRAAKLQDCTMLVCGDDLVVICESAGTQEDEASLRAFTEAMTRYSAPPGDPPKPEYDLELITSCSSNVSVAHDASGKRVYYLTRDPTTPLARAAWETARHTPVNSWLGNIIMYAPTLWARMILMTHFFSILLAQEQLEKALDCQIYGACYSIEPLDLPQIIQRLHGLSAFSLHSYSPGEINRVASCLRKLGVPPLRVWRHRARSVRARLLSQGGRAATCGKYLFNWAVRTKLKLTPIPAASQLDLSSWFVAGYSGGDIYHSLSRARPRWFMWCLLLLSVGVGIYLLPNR

`CC[C@H](C)[C@H](NC(=O)OC)C(=O)N1CCC[C@H]1c1ncc(-c2ccc3cc(-c4ccc5[nH]c([C@@H]6CCCN6C(=O)[C@@H](NC(=O)OC)[C@@H](C)OC)nc5c4)ccc3c2)[nH]1` [US9427428, 21] showed an EC50 of 2.2 nM.
